# Assay results taken from patent US20240226098A1, “COMPOUNDS AND METHODS FOR MODULATING SPLICING” (REMIX THERAPEUTICS INC., priority 2020, published 2024).
# Where a name gives a salt, the structure may show the parent alone.
# Columns and labels:
# Assay type in all cases: cell-based
# [1] = system: HTT mRNA, canonical junction (CJ); test: Splicing assay (RT-qPCR): decrease in HTT canonical junction (CJ) mRNA; conditions: A673 or K562 cell line, 24 hours treatment, top dose 10 uM; concentration having 50% response in CJ decrease
# Procedure: (§1) Compounds described herein were used to modulate RNA transcript abundance in cells. The expression of a target mRNA was measured by detecting the formation of an exon-exon junction in the canonical transcript (CJ). A compound mediated exon-inclusion event was detected by observing an increase in formation of a new junction with an alternative exon (AJ). Real-time qPCR assays were used to detect these splicing switches and interrogate the potency of various compounds towards different target genes. A high-throughput real time quantitative PCR (RT-qPCR) assay was developed to measure these two isoforms of the mRNA (CJ and AJ) for an exemplary gene, HTT, together with a control housekeeping gene, GAPDH or GUSB or PPIA, used for normalization. Briefly, the A673 or K562 cell line was treated with various compounds described herein (e.g., compounds of Formula (I)). After treatment, the levels of the HTT mRNA targets were determined from each sample of cell lysate by cDNA synthesis followed by qPCR.
# (§2) • Cells-to-CT 1-step kit: ThermoFisher A25602, Cells-to-CT lysis reagent: ThermoFisher 4391851C, TaqMan™ Fast Virus 1-Step Master Mix: ThermoFisher 4444436 • GAPDH: VIC-PL, ThermoFisher 4326317E (Assay: Hs99999905_ml)—used for K562/suspension cell lines • GUSB: VIC-PL, ThermoFisher 4326320E (Assay: Hs99999908_ml)—used for K562/suspension cell lines • PPIA: VIC-PL, ThermoFisher 4326316E (Assay: Hs99999904_ml)—used for A673/adherent cell lines
# (§3) The A673 cell line was cultured in DMEM with 10% FBS. Cells were diluted with full growth media and plated in a 96-well plate (15,000 cells in 100 ul media per well). The plate was incubated at 37° C. with 5% CO2 for 24 hours to allow cells to adhere. An 11-point 3-fold serial dilution of the compounds was made in DMSO then diluted in media in an intermediate plate. Compounds were transferred from the intermediate plate to the cell plate with the top dose at a final concentration of 10 uM in the well. Final DMSO concentration was kept at or below 0.25%. The cell plate was returned to the incubator at 37° C. with 5% CO2 for an additional 24 hours.
# (§4) The K562 cell line was cultured in IMDM with 10% FBS. For K562, cells were diluted with full growth media and plated in either a 96-well plate (50,000 cells in 50 uL media per well) or a 384-well plate (8,000-40,000 cells in 45 uL media per well). An 11-point 3-fold serial dilution of the compounds were made in DMSO then diluted in media in an intermediate plate. Compound was transferred from the intermediate plate to the cell plate with the top dose at a final concentration of 10 uM in the well. Final DMSO concentration was kept at or below 0.25%. Final volume was 100 uL for 96-well plate and 50 uL for 384-well plate. The cell plate was then placed in an incubator at 37° C. with 5% CO2 for 24 hours.
# (§5) The cells were then gently washed with 50 uL-100 uL cold PBS before proceeding to addition of lysis buffer. 30 uL-50 uL of room temperature lysis buffer with DNAse I (and optionally RNAsin) was added to each well. Cells were shaken/mixed thoroughly at room temperature for 5-10 minutes for lysis to take place and then 3 uL-5 uL of room temperature stop solution was added and wells were shaken/mixed again. After 2-5 minutes, the cell lysate plate was transferred to ice for RT-qPCR reaction setup. The lysates could also be frozen at −80° C. for later use.
# (§6) In some cases, a direct lysis buffer was used. An appropriate volume of 3× lysis buffer (10 mM Tris, 150 mM NaCl, 1.5%-2.5% Igepal and 0.1-1 U/uL RNAsin, pH 7.4) was directly added to either K562 or A673 cells in media and mixed by pipetting 3 times. The plates were then incubated at room temperature with shaking/rocking for 20-50 minutes to allow for lysis to take place. After this time, the cell lysate plate was transferred to ice to set up for the RT-qPCR reactions. The lysates could also be frozen at −80° C. for later use. […]
# HTT CJ mRNA = test: Gene panel canonical junction qPCR assay: decrease in HTT CJ mRNA; conditions: protocol as for Table 2, read-out: HTT (IC50, decrease in CJ mRNA levels)
# Procedure: as §1, §3, §4, §5
# (§7) In some cases, a direct lysis buffer was used. An appropriate volume of 3× lysis buffer (10 mM Tris, 150 mM NaCl, 1.5%-2.5% Igepal and 0.1-1 U/uL RNAsin, pH 7.4) was directly added to either K562 or A673 cells in media and mixed by pipetting 3 times. The plates were then incubated at room temperature with shaking/rocking for 20-50 minutes to allow for lysis to take place. After this time, the cell lysate plate was transferred to ice to set up for the RT-qPCR reactions. The lysates could also be frozen at −80° C. for later use.
# (§8) To set up 10 uL RT-qPCR reactions, cell lysates were transferred to 384-well qPCR plates containing the master mix according to the table below. The plates were sealed, gently vortexed, and spun down before the run. The volumes were adjusted accordingly in some instances where the reaction was carried in 20 uL. The table below summarizes the components of the RT-qPCR reactions:
# (§9) The RT-qPCR reaction was performed using a QuantStudio (ThermoFisher) under the following fast cycling conditions. […]
# SMN2 CJ mRNA = test: Gene panel canonical junction qPCR assay: decrease in SMN2 CJ mRNA; conditions: protocol as for Table 2, read-out: SMN2 (IC50, decrease in CJ mRNA levels)
# Procedure: as §1, §3, §4, §5, §7, §8, §9
# [2] = system: HTT mRNA, alternative junction (AJ); test: Splicing assay (RT-qPCR): increase in HTT alternative junction (AJ) mRNA; conditions: A673 or K562 cell line, 24 hours treatment, top dose 10 uM; concentration having 50% response in AJ increase
# Procedure: as §1, §2, §3, §4, §5, §6
# Target C CJ mRNA = test: Gene panel canonical junction qPCR assay: decrease in Target C CJ mRNA; conditions: protocol as for Table 2, read-out: Target C (IC50, decrease in CJ mRNA levels)
# Procedure: as §1, §3, §4, §5, §7, §8, §9
SMILES,IC50 (HTT CJ mRNA) [nM],IC50 (SMN2 CJ mRNA) [nM],IC50 (Target C CJ mRNA) [nM],AC50 [1] [nM],AC50 [2] [nM]
"Cc1cn2cc(NC(=O)c3ccc(N(C)[C@@H]4C[C@H]5CC[C@@H](C4)N5)c4ccnnc34)cc(F)c2n1 [Compound 156, 5-[(exo)-8-azabicyclo[3.2.1]octan-3-yl(methyl)amino]-N-[8-fluoro-2-methylimidazo[1,2-a]pyridin-6-yl]cinnoline-8-carboxamide]",> 10000,100 to 1000,> 10000,> 10000,> 10000
"Cc1cn2cc(NC(=O)c3ccc(N(C)C4CC(C)(C)NC(C)(C)C4)c4ccnnc34)cc(F)c2n1 [Compound 135, N-[8-fluoro-2-methylimidazo[1,2-a]pyridin-6-yl]-5-[methyl(2,2,6,6-tetramethylpiperidin-4-yl)amino]cinnoline-8-carboxamide]",,,,100 to 1000,1000 to 10000
"Cc1cn2cc(NC(=O)c3ccc(N4CCNC(C)(C)C4)c4ccnnc34)cc(F)c2n1 [Compound 106, 5-(3,3-dimethylpiperazin-1-yl)-N-[8-fluoro-2-methylimidazo[1,2-a]pyridin-6-yl] cinnoline-8-carboxamide hydrochloride]",,,,100 to 1000,1000 to 10000
"Cc1cn2cc(NC(=O)c3ccc(N(C)C4CCN(C)CC4)c4ccnnc34)cc(F)c2n1 [Compound 136, N-[8-fluoro-2-methylimidazo[1,2-a]pyridin-6-yl]-5-[methyl(1-methylpiperidin-4-yl)amino] cinnoline-8-carboxamide]",,,,1000 to 10000,1000 to 10000
"CCNC1CCN(c2ccc(C(=O)Nc3cc(F)c4nc(C)cn4c3)c3nnccc23)CC1 [Compound 139, 5-[4-(ethylamino)piperidin-1-yl]-N-[8-fluoro-2-methylimidazo[1,2-a]pyridin-6-yl]cinnoline-8-carboxamide]",,,,1000 to 10000,1000 to 10000
"Cc1cn2cc(NC(=O)c3ccc(N4CCNC5(CC5)C4)c4ccnnc34)cc(F)c2n1 [Compound 105, 5-[4,7-diazaspiro [2.5]octan-7-yl]-N-[8-fluoro-2-methylimidazo[1,2-a]pyridin-6-yl] cinnoline-8-carboxamide hydrochloride]",,,,1000 to 10000,1000 to 10000
Cc1cn2cc(NC(=O)c3ccc(N4CCN5CCCC5C4)c4ccnnc34)cc(F)c2n1 (stereo not shown) [Compound 107],,,,1000 to 10000,100 to 1000
"Cc1cn2cc(NC(=O)c3ccc(N4CC(C)(C)NC(C)(C)C4)c4ccnnc34)cc(F)c2n1 [Compound 104, N-[8-fluoro-2-methylimidazo[1,2-a]pyridin-6-yl]-5-(3,3,5,5-tetramethylpiperazin-1-yl) cinnoline-8-carboxamide]",,,,1000 to 10000,1000 to 10000
"Cc1cn2cc(NC(=O)c3ccc(N4CCNCC4)c4ncnnc34)cc(F)c2n1 [Compound 110, N-[8-fluoro-2-methylimidazo[1,2-a]pyridin-6-yl]-5-(piperazin-1-yl)-1,2,4-benzotriazine-8-carboxamide]",,,,1000 to 10000,1000 to 10000
"CCC1CN(c2ccc(C(=O)Nc3cc(F)c4nc(C)cn4c3)c3nnccc23)CCN1 (stereo not shown) [Compound 130, 5-(3-ethylpiperazin-1-yl)-N-[8-fluoro-2-methylimidazo[1,2-a]pyridin-6-yl] cinnoline-8-carboxamide hydrochloride]",1000 to 10000,< 100,,1000 to 10000,1000 to 10000

# Now from value to compound, other results behind:
IC50 (HTT CJ mRNA) [nM],IC50 (SMN2 CJ mRNA) [nM],IC50 (Target C CJ mRNA) [nM],SMILES,AC50 [1] [nM],AC50 [2] [nM]
1000 to 10000,< 100,,"Cc1cn2cc(NC(=O)c3ccc(N4CCN(C)C(C)C4)c4ccnnc34)cc(F)c2n1 (stereo not shown) [Compound 129, 5-(3,4-dimethylpiperazin-1-yl)-N-[8-fluoro-2-methylimidazo [1,2-a]pyridin-6-yl]cinnoline-8-carboxamide]",1000 to 10000,1000 to 10000
1000 to 10000,< 100,1000 to 10000,"Cc1nc2c(F)cc(NC(=O)c3ccc(N4CCNCC4)c4ccnnc34)cc2o1 [Compound 117, N-(4-fluoro-2-methyl-1,3-benzoxazol-6-yl)-5-(piperazin-1-yl) cinnoline-8-carboxamide]",1000 to 10000,1000 to 10000
1000 to 10000,< 100,1000 to 10000,"Cc1cn2cc(NC(=O)c3ccc(N4CCN(C)C(C)C4)c4ccnnc34)cc(F)c2n1 (stereo in doubt) [Compound 150, 5-[(3R)-3,4-dimethylpiperazin-1-yl]-N-[8-fluoro-2-methylimidazo[1,2-a]pyridin-6-yl]cinnoline-8-carboxamide]",1000 to 10000,1000 to 10000
100 to 1000,< 100,100 to 1000,"Cc1cn2cc(NC(=O)c3ccc(N4CCNC(C)C4)c4ccnnc34)cc(F)c2n1 (stereo not shown) [Compound 128, N-[8-fluoro-2-methylimidazo[1,2-a]pyridin-6-yl]-5-(3-methylpiperazin-1-yl) cinnoline-8-carboxamide]",100 to 1000,100 to 1000
1000 to 10000,1000 to 10000,1000 to 10000,"Cc1cn2cc(NC(=O)c3ccc(N4C[C@H]5C[C@@H]4C5N(C)C)c4ccnnc34)cc(F)c2n1 (stereo partly drawn) [Compound 148, 5-[(1R,4R)-5-(dimethylamino)-2-azabicyclo [2.1.1]hexan-2-yl]-N-[8-fluoro-2-methylimidazo[1,2-a]pyridin-6-yl] cinnoline-8-carboxamide]",1000 to 10000,1000 to 10000
> 10000,> 10000,,"COc1ccc2c(N3CCNCC3)ccc(-c3cc(F)c4nc(C)cn4c3)c2n1 [Compound 114, 8-[8-fluoro-2-methylimidazo[1,2-a]pyridin-6-yl]-2-methoxy-5-(piperazin-1-yl) quinoline]",> 10000,> 10000
> 10000,> 10000,,"Cc1cn2cc(-c3ccc(N4CCNCC4)c4ccc(O)nc34)cc(F)c2n1 [Compound 144, 8-[8-fluoro-2-methylimidazo[1,2-a]pyridin-6-yl]-5-(piperazin-1-yl)quinolin-2-ol]",> 10000,> 10000
1000 to 10000,100 to 1000,,"Cc1cn2cc(NC(=O)c3ccc(N4CCC(NC(C)(C)C)C4)c4ccnnc34)cc(F)c2n1 (stereo not shown) [Compound 109, 5-[3-(tert-butylamino)pyrrolidin-1-yl]-N-[8-fluoro-2-methylimidazo[1,2-a]pyridin-6-yl]cinnoline-8-carboxamide]",1000 to 10000,1000 to 10000
